Experimental data taken from PMC7669869, “AdipoR1/AdipoR2 dual agonist recovers nonalcoholic steatohepatitis and related fibrosis via endoplasmic reticulum-mitochondria axis” (Nature Communications, 2020).
Where “and” joins values, the source holds several entries; their conditions need not be identical. Equal values may be shown once. Non-standard residues stand in square brackets, D forms with d. Residues, ends and D or L forms follow the SMILES beside them. Nva = CCC[C@H](N)C(=O)O

Experiments:
HFD + MCD diet NASH mice = experiment: HFD combined with MCD diet NASH mice: weight gain, HE steatosis area; type: in vivo, mouse; settings: HFD 16 weeks + MCD diet last 4 weeks; compared with ADP355; in words
Procedure: (§1) The NASH model was conducted with feeding a HFD for 16 weeks combine with a MCD diet (Methionine/Choline Deficient Diet, Medicience, China) in the last 4 weeks. Mice administered a MCS diet (Methionine/Choline Sufficient Diet, Medicience, China) serves as control group. NAFLD or NASH mice treated with JT003 for 4 weeks were used to evaluate the pharmacological effects (n = 6; 500 μg kg^−1; daily intraperitoneal injection). Food and water were provided ad libitum. The body weight of mice was examined every 3 days. The diet was renewed every 7 days. JT003 was diluted in PBS.
The levels of TG and HYP in liver tissue were detected with certain commercial assay kit (Nanjing Jiancheng Bioengineering Institute, China). Formalin-fixed liver tissues were embedded in paraffin, sectioned into 5 μm slices. After deparaffinization and rehydration of the section slices, they were stained with Haematoxylin and Eosin or Periodic Acid-Schiff. For the detection of liver collagen content, Sirius Red staining for collagen was performed. […] The cryostat-cut slices were stained with freshly prepared Oil Red O working solution for 7 min Two independent experimenters who were blinded to the treatment evaluated the staining slides and analyzed the score for steatosis, glucogen accumulation and collagen proliferation area.

[1] = system: liver protein expression of HFD induced NASH mice; experiment: HFD mice: liver western blot; type: in vivo, mouse; settings: JT003 500 μg kg−1, in words
Procedure: as §1
Total protein was isolated from cells or liver samples using RIPA lysis buffer (50.0 mM Tris-HCl (pH = 8.0), 150.0 mM NaCl, 0.02% NaN3, 0.1% SDS, 1% NP-40, 0.5% deoxysodium cholate, 1 mM EDTA, […]). The protein concentration was quantified with BCA kit (Pierce, ThermoFisher Scientific, USA). Thirty micrograms protein were separated by 10 or 12% sodium dodecyl sulfate-polyacrylamide gel electrophoresis depending on the band of target protein, then transferred onto equilibrated polyvinylidene difluoride membrane (PVDF, Immobilon®-PSQ transfer membranes, Merck Millipore, Germany). Membranes were incubated with primary antibodies overnight at 4 °C. Specific antibodies were listed in Supplementary Table 3. After incubation with the secondary antibody, proteins were detected by enhanced chemiluminescence (Glarity^TM Western ECL Substrate, Bio-Rad, USA) and the signals were recorded and quantified with Tanon-Image Software (Shanghai, China). Reference antibody GAPDH were used for data normalization.

AdipoR2 = molecular target: T1, AdipoR2 (Homo sapiens, UniProt Q86V24); experiment: HTRF binding, AdipoR2 overexpression HEK293 cells; settings: in words
T1 construct: His; host or cells: HEK293
T1 sequence (Q86V24 1-386): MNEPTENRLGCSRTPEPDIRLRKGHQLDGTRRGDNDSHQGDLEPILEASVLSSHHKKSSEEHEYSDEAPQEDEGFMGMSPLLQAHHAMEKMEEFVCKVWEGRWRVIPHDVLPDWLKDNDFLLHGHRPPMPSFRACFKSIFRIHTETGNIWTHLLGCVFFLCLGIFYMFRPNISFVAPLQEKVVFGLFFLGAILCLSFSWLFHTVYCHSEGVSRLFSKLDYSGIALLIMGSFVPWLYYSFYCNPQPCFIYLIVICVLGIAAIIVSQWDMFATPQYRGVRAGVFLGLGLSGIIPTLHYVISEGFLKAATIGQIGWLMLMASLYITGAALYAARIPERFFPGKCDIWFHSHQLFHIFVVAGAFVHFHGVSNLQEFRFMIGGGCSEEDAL
Procedure: The expression plasmid of AdipoR1 and AdipoR2 were synthesized and codon optimized by Genescript (Nanjing, China) for their expression in HEK293 cell line. The concentration of FITC-JT003 was 0, 0.1, 0.25, 0.5, 1, 2.5 or 5 μM respectively. Unlabeled peptide JT003 was used as the control to measure the non-specific signal. 10E4 AdipoR1 and AdipoR2 overexpression cells, anti-His-Tb (ThermoFisher Scientific, USA) and JT003-FITC were added into a 384-well plate, with a total volume of 25μl. The mixtures were incubated at room temperature for 30 min in the dark. Fluorescent values at 520 nm and 620 nm were measured for Kd calculation.

[2] = system: liver gene expression of CCl4 induced liver fibrosis mice; experiment: CCl4 mice: liver mRNA, quantitative RT-PCR; type: in vivo, mouse; set-up: key to BAX liver mRNA / BID liver mRNA / UCP2 liver mRNA / DGAT1 liver mRNA / GSTM1 liver mRNA / GPX1 liver mRNA / HO-1 liver mRNA / XBP1 liver mRNA / ATF4 liver mRNA / GRP78 liver mRNA / BIM liver mRNA: mRNA expression normalized to β-actin reference gene; settings: for BCL2 liver mRNA, relative expression (Apotosis), Supplementary Figure 16 / FAS liver mRNA, relative expression (Apotosis), Supplementary Figure 16: CCl4 + JT003 mice
Procedure: Male mice liver fibrosis was induced by intraperitoneal injection of 20% CCl4 (Sigma, USA) diluted in corn oil (Aladdin, China) every 3 days for 6 weeks (n = 6; 5 ml kg^−1 body weight). Mice injected with equivalent volume of corn oil serves as control group (n = 6). Liver fibrosis mice treated with JT003 for 3 weeks were used to evaluated the pharmacological effects (n = 6; 500 μg kg^−1; daily intraperitoneal injection).
Liver total RNA was extracted by using Trizol reagent following the manufacture’s instruction (TransGen Biotech, China). The concentration of RNA was measured by Nanodrop 2000 (ThermoFisher Scientific, USA). cDNA was transcribed from 10ug total RNA with First Strand cDNA synthesis Super Mix (TransGen Biotech, China). The cDNA was diluted 1/50 and 1.0 uL were used as a template for qPCR. qPCR was performed with SYBR Green qPCR Super Mix (TransGen Biotech, China) in the Light Cycler 480 Real-Time PCR System (Roche, Swiss). Reference gene β-actin was used for data normalization. mRNA expression was analyzed with specific primers listed in Supplementary Table 2.

[3] = CCl4 fibrosis mice, liver, JT003 500 μg kg−1, in words
[4] = CCl4 mice, liver, JT003 500 μg kg−1, in words
[5] = Figure 7d left, CCl4 + JT003 group, single replicates, n = 6
[6] = Figure 7d right, CCl4 + JT003 group, single replicates, n = 6

CCC[C@H](NC(=O)[C@@H]1CCCN1)C(=O)N[C@@H](CC(C)C)C(=O)N[C@@H](Cc1ccc(O)cc1)C(=O)N[C@@H](Cc1ccc(O)cc1)C(=O)N[C@@H](Cc1ccccc1)C(=O)N[C@@H](C)C(N)=O [JT003] (H-P[Nva]LYYFA-NH2)
lipid accumulation in HFD combine with MCD diet NASH mouse model (HFD + MCD diet NASH mice): inhibited lipid accumulation significantly with a 20 times lower dosage | PI3K and Akt phosphorylation in liver tissue [1]: increased | AMPK and PPARα signaling (western blotting) ([1]; liver): activated apparently | expression of downstream factor PPARγ ([1]; liver): inhibited | phosphorylation of PERK and its downstream eIF2α and JNK ([1]; liver): decreased notably | Kd value for AdipoR2 compared to JT006 and ADP355 (AdipoR2): significantly lower Kd value | BCL2 liver mRNA, relative expression (Apotosis), Supplementary Figure 16 ([2]; replicate 1): 19.1929 | FAS liver mRNA, relative expression (Apotosis), Supplementary Figure 16 ([2]; replicate 1): 0.7337 | BCL2 liver mRNA, relative expression (Apotosis), Supplementary Figure 16 ([2]; replicate 2): 9.563 | FAS liver mRNA, relative expression (Apotosis), Supplementary Figure 16 ([2]; replicate 2): 0.7492 | BCL2 liver mRNA, relative expression (Apotosis), Supplementary Figure 16 ([2]; replicate 3): 15.2158 | FAS liver mRNA, relative expression (Apotosis), Supplementary Figure 16 ([2]; replicate 3): 0.6522 | BCL2 liver mRNA, relative expression (Apotosis), Supplementary Figure 16 ([2]; replicate 4): 10.7592 | FAS liver mRNA, relative expression (Apotosis), Supplementary Figure 16 ([2]; replicate 4): 0.5898 | TGFβ, CTGF, IL-6, TNFα and IL-1β (HSCs activation) [2, 3]: all suppressed | expression of genes related to ECM accumulation (TIMP1, MMP3 and MMP8) [2, 3]: decreased | genes involved in ECM elimination (MMP2, MMP9 and MMP13) [2, 3]: notably upregulated | ER-Stress related genes (XBP1, ATF4, GRP78 and BIM) ([2]; CCl4 induced fibrosis mice, liver, JT003 500 μg kg−1, in words): remarkably suppressed | anti-apoptotic BCL2 (RT-PCR) [2, 4]: significantly improved | apoptosis-related FAS (RT-PCR) [2, 4]: reduced | ATF4 liver mRNA [2, 5]: 1.16 and 0.7959 and 1.086 (2×) and 0.9357 and 1.157 | BIM liver mRNA [2, 5]: 0.2472 and 0.8351 and 0.6258 and 0.6305 and 0.5305 and 0.5258 | GRP78 liver mRNA [2, 5]: 0.8253 and 1.201 and 1.072 (2×) and 0.9986 and 0.797 | XBP1 liver mRNA [2, 5]: 2.911 and 0.8961 and 1.2156 (2×) and 1.656 and 1.136 | DGAT1 liver mRNA ([2]; Figure 7d right, CCl4 + JT003 group, single replicates, 5 values): 0.8433 and 1.099 and 1.191 and 0.9141 and 2.738 | BAX liver mRNA [2, 6]: 1.955 and 0.8137 and 1.744 and 0.6724 and 1.0479 and 1.373 | BID liver mRNA [2, 6]: 1.296 and 0.8034 and 0.6436 and 0.8394 and 0.9828 and 0.9284 | GPX1 liver mRNA [2, 6]: 0.4793 and 0.5322 and 0.6634 and 0.7144 and 0.5138 and 0.7293 | GSTM1 liver mRNA [2, 6]: 0.3771 and 0.1875 and 0.195 and 1.014 and 0.3719 and 0.9044 | HO-1 liver mRNA [2, 6]: 1.179 and 1.19 and 1.314 and 1.134 and 1.372 and 1.274 | PGC1a liver mRNA [2, 6]: 1.328 and 1.046 and 1.167 and 1.184 and 1.337 and 1.083 | PGC1b liver mRNA [2, 6]: 1.159 and 2.677 and 4.191 and 3.928 and 2.638 and 2.374 | UCP2 liver mRNA [2, 6]: 0.9325 and 1.681 and 1.172 and 0.7627 and 0.8293 and 0.6383
